Data reported in patent publication US9113629B2, “4-amino-6-(4-substituted-phenyl)-picolinates and 6-amino-2-(4-substituted-phenyl)-pyrimidine-4-carboxylates and their use as herbicides” (DOW AGROSCIENCES LLC, priority 2013, dated 2015).

Key:
[1] = Post-emergent Test III, herbicidal activity in wheat and barley; assay type: in vivo, Lolium multiflorum, Lolium rigidum; settings: Lolium multiflorum, post-emergence, 504 h, read-out: Visual Growth Reduction (%) 21 Days After Application LOLSS; for pest or weed control at 35 g/ha: 35 g ai/ha; for pest or weed control at 70 g/ha: 70 g ai/ha; for pest or weed control at 140 g/ha: 140 g ai/ha
Description: (§1) Post-emergent Test III. Seeds of the desired test plant species were planted in Sun Gro MetroMix® 306 planting mixture, which typically has a pH of 6.0 to 6.8 and an organic matter content of about 30 percent, in plastic pots with a surface area of 103.2 square centimeters (cm^2). When required to ensure good germination and healthy plants, a fungicide treatment and/or other chemical or physical treatment was applied. The plants were grown for 7-36 days (d) in a greenhouse with an approximate 14 hour (h) photoperiod which was maintained at about 18° C. during the day and 17° C. during the night. Nutrients and water were added on a regular basis and supplemental lighting was provided with overhead metal halide 1000-Watt lamps as necessary. The plants were employed for testing when they reached the second or third true leaf stage.
(§2) A weighed amount, determined by the highest rate to be tested, of each test compound was placed in a 25 mL glass vial and was dissolved in 4 mL of a 97:3 v/v mixture of acetone and DMSO to obtain concentrated stock solutions. […] The concentrated stock solutions obtained were diluted with 20 mL of an aqueous mixture containing acetone, water, isopropyl alcohol, DMSO, Agri-Dex crop oil concentrate, and X-77 surfactant in a 48:39:10:1.5:1.5:0.02 v/v ratio to obtain spray solutions containing the highest application rates. Additional application rates were obtained by serial dilution of 12 mL of the high rate solution into a solution containing 2 mL of 97:3 v/v mixture of acetone and DMSO and 10 mL of an aqueous mixture containing acetone, water, isopropyl alcohol, DMSO, Agri-Dex crop oil concentrate, and X-77 surfactant in a 48:39:10:1.5:1.5:0.02 v/v ratio to obtain ½×, ¼×, ⅛× and 1/16× rates of the high rate. Compound requirements are based upon a 12 mL application volume at a rate of 187 liters per hectare (L/ha). Formulated compounds were applied to the plant material with an overhead Mandel track sprayer equipped with 8002E nozzles calibrated to deliver 187 L/ha over an application area of 0.503 square meters at a spray height of 18 inches (43 cm) above the average plant canopy height. Control plants were sprayed in the same manner with the solvent blank.
(§3) The treated plants and control plants were placed in a greenhouse as described above and watered by subirrigation to prevent wash-off of the test compounds. After 21 d, the condition of the test plants as compared with that of the untreated plants was determined visually and scored on a scale of 0 to 100 percent where 0 corresponds to no injury and 100 corresponds to complete kill.
(§4) By applying the well-accepted probit analysis as described by J. Berkson in Journal of the American Statistical Society, 48, 565 (1953) and by D. Finney in “Probit Analysis” Cambridge University Press (1952), herbicidal injury of a specific compound at various rates can be used to calculate GR20, GR50, GR80 and GR90 values, which are defined as growth reduction factors that correspond to the effective dose of herbicide required to provide plant growth reduction (GR) of 20 percent, 50 percent, 80 percent and 90 percent, respectively. Probit analysis was applied to data collected from multiple dose rates of individual compounds utilizing the procedures explained in the following examples. The analysis of those dose rates is captured in the following tables.

[2] = system: APESV: bentgrass (Apera spica-venti); test: as above; assay type: in vivo; settings: for pest or weed control at 35 g/ha / pest or weed control at 70 g/ha / pest or weed control at 140 g/ha: Apera spica-venti, post-emergence, 504 h, read-out: Visual Growth Reduction (%) 21 Days After Application APESV; for pest or weed control at 35 g/ha: 35 g ai/ha; for pest or weed control at 70 g/ha: 70 g ai/ha; for pest or weed control at 140 g/ha: 140 g ai/ha; for GR50 APESV / GR80 APESV: probit analysis, 21 days after application; for GR50 APESV: dose for growth reduction of 50 percent; for GR80 APESV: dose for growth reduction of 80 percent
Description: as §1, §2, §3, §4

[3] = system: KCHSC: kochia (Kochia scoparia); test: as above; assay type: in vivo; settings: for pest or weed control at 35 g/ha / pest or weed control at 70 g/ha / pest or weed control at 140 g/ha: Bassia scoparia, post-emergence, 504 h, read-out: Visual Growth Reduction (%) 21 Days After Application KCHSC; for pest or weed control at 35 g/ha: 35 g ai/ha; for pest or weed control at 70 g/ha: 70 g ai/ha; for pest or weed control at 140 g/ha: 140 g ai/ha; for GR50 KCHSC / GR80 KCHSC: probit analysis, 21 days after application; for GR50 KCHSC: dose for growth reduction of 50 percent; for GR80 KCHSC: dose for growth reduction of 80 percent
Description: as §1, §2, §3, §4

[4] = system: LOLSS: ryegrass including, Italian ryegrass (Lolium multiflorum), rigid ryegrass (Lolium rigidum), annual ryegrass (Lolium multiflorum subsp. Gaudini); test: as above; assay type: in vivo; settings: probit analysis, 21 days after application; for GR50 LOLSS: dose for growth reduction of 50 percent; for GR80 LOLSS: dose for growth reduction of 80 percent
Description: as §1, §2, §3, §4

[5] = system: MATSS: scented mayweed (Matricaria chamomilla), pineappleweed (Matricaria matricarioides); test: as above; assay type: in vivo; settings: for pest or weed control at 35 g/ha / pest or weed control at 70 g/ha / pest or weed control at 140 g/ha: Matricaria chamomilla, post-emergence, 504 h, read-out: Visual Growth Reduction (%) 21 Days After Application MATSS; for pest or weed control at 35 g/ha: 35 g ai/ha; for pest or weed control at 70 g/ha: 70 g ai/ha; for pest or weed control at 140 g/ha: 140 g ai/ha; for GR50 MATSS / GR80 MATSS: probit analysis, 21 days after application; for GR50 MATSS: dose for growth reduction of 50 percent; for GR80 MATSS: dose for growth reduction of 80 percent
Description: as §1, §2, §3, §4

Structure (SMILES) | pest or weed control at 35 g/ha [1] [%] | pest or weed control at 70 g/ha [1] [%] | pest or weed control at 140 g/ha [1] [%] | pest or weed control at 35 g/ha [2] [%] | pest or weed control at 70 g/ha [2] [%] | pest or weed control at 140 g/ha [2] [%] | GR50 APESV [2] [g ai/ha] | GR80 APESV [2] [g ai/ha] | pest or weed control at 35 g/ha [3] [%] | pest or weed control at 70 g/ha [3] [%] | pest or weed control at 140 g/ha [3] [%] | GR50 KCHSC [3] [g ai/ha] | GR80 KCHSC [3] [g ai/ha] | GR50 LOLSS [4] [g ai/ha] | GR80 LOLSS [4] [g ai/ha] | pest or weed control at 35 g/ha [5] [%] | pest or weed control at 70 g/ha [5] [%] | pest or weed control at 140 g/ha [5] [%] | GR50 MATSS [5] [g ai/ha] | GR80 MATSS [5] [g ai/ha]
C=Cc1c(C(=O)O)nc(-c2ccc(Cl)c(F)c2)c(F)c1N [Compound 214] | 30 to 44 | 45 to 59 | 85 to 94 | 0 to 29 | 30 to 44 | 45 to 59 | 110 | >140 | 75 to 84 | 85 to 94 | 95 to 100 | 7 | 52 | 59 | >140 | 75 to 84 | 85 to 94 | 85 to 94 | 4 | 41
COC(=O)c1nc(-c2ccc(Br)c(F)c2F)c(F)c(N)c1Cl [Compound 109, methyl 4-amino-6-(4-bromo-2,3-difluorophenyl)-3-chloro-5-fluoropicolinate] | 45 to 59 | 45 to 59 | – | 85 to 94 | 85 to 94 | – | 1 | 6 | 85 to 94 | 85 to 94 | – | 3 | 19 | 34 | >140 | 30 to 44 | 45 to 59 | – | 72 | >140
Nc1c(F)c(-c2ccc(Br)c(F)c2F)nc(C(=O)O)c1Cl [Compound 147] | 30 to 44 | 45 to 59 | 60 to 74 | 85 to 94 | 85 to 94 | 85 to 94 | 5 | 16 | 85 to 94 | 95 to 100 | 85 to 94 | 4 | 19 | 71 | >140 | 95 to 100 | 95 to 100 | 95 to 100 | 6 | 14
COC(=O)c1nc(-c2ccc(C(F)F)cc2)c(F)c(N)c1Cl [Compound 209] | 0 to 29 | 30 to 44 | – | 0 to 29 | 0 to 29 | – | >140 | >140 | 60 to 74 | 85 to 94 | – | 12 | 42 | 93 | >140 | 0 to 29 | 0 to 29 | – | >140 | >140
